Like-named read-outs stand apart in the source and are kept apart here.
What was measured:
[1] = system: epithelial carcinoma A431 cell line; assay: MTT Cell Proliferation Assay, A431 cell line; assay type: cell-based; conditions: for MTT (10 Point follow-up) ratio / MTT-72 h A431/MDBK (ratio): value in brackets; for MTT (10 Point follow-up) ratio: numerically MDBK over A431; for IC50: Homo sapiens; for MTT-72 h A431/MDBK (ratio): numerically MDBK value over A431 value; for MTT-72 h % Max: maximal effect printed after the ratio
Source text: (§1) The following example describes the MTT Cell Proliferation Assay.
(§2) The MTT Cell Proliferation Assay is a colorimetric assay system that measures the reduction of the tetrazolium salt MTT (3-(4,5-dimethylthiazol-2-yl)-2,5-diphenyltetrazolium bromide) into insoluble formazan crystals, produced by the mitochondria of viable cells. […] The color can then be quantified by spectrophotometric means. Among the applications for the method are drug sensitivity, cytotoxicity, response to growth factors, and cell activation. The reduction of tetrazolium salts is now recognized as a safe, accurate alternative to radiometric testing.
(§3) Two replicates on each cell plate and 2 duplicate plates gave 4 individual replicates of each concentration, in each cell line. Concentrations were diluted in 100% DMSO from 25 mM stocks.
(§4) Twelve 96 well plates of each cell line were plated. Plating was done by dislodging cells as in passage protocol, counting on a hemocytometer, re-suspending in standard growth media, and plating using a multichannel pippetor.
(§5) 16 μl of 25 mM stock+34 μl DMSO=8 mM starting concentrations, and serial diluted as with test compounds in same plate. […] Two replicates of each concentrations was run on each cell plate. All compound addition and cell treatments were done using aseptic technique under a laminar flow aseptic hood.
(§6) Control: 0.5% DMSO in treatment media was used as the control.
(§7) MTT dye (Thiazolyl Blue Tetrazolium Bromide, Sigma cat # M5655) stock was prepared in bulk and stored at 4° C. for use: 5 mgs/ml sterile PDS, shielded from light. 4 ul of this stock per 100 uls treatment media per well was used.
(§8) Plates were incubated overnight prior to treatment, with treatment day=Day 0. Compound treatments were prepared prior to washing cells to minimize time cells were dry at room temperature after final aspiration. Compounds were diluted in 100% DMSO in 96 well polypropylene plates:40 μl 25 mM stock+10 μl DMSO=20 mM; 20 μl of 20 mM+30 μl DMSO=8 mM; 20 μl of 8 mM+30 μl DMSO=3.2 mM; 20 μl of 3.2 mM+30 μl DMSO=1.3 mM; 20 μl of 1.3 mM+30 μl DMSO=0.51 mM.
(§9) 5.0 μl/ml were added to treatment media, in sterile, 2.2 ml deep well plates=0.5% dmso final. Ten μl of each dmso concentration was added to 2.0 ml of treatment media and then mixed using a 1200 μl multichannel pipettor. Cell plates were treated from the deep well plates. Treatment media was standard growth media containing 0.5% FBS and standard additions. This reduced FBS concentration allowed for a slower growth rate in cells.
(§10) Media was aspirated from cell plates, and washed with 200 μl/well sterile PBS. Aspirated PBS wash, and cell plates were treated with 200 μl of compound/treatment media per well, and incubated at 37° C., 5% CO2 for 3 days.
(§11) Prior to harvesting, visual observations were made under an inverted microscope. Plates were harvested by: aspirating the growth media; adding back MTT dye/100 μl treatment media; and incubating plates at 37° C. for 1 hour. MTT dye was aspirated. 100 μl/well dmso was added, and then shaken on a Bellco plate shaker for 5 minutes, at 4.5 setting.
(§12) Plates were read in a Tecan Sunrize UV plate reader, at 560 nm. Settings: Read mode, Outside Normal 2 sec; Shake settle time 3 sec. Data is reported as % inhibition, calculated for individual plates using control values from that plate.

EGFR = target: T1, EGFR (Homo sapiens, UniProt P00533); assay: EGFR in-cell Western (ICW) screening protocol; assay type: cell-based; set-up: unit not given here; conditions: for ICW Screen: initial screen
T1 construct: endogenous in cells; host or cells: A431 cells (ATCC CRL-1555)
T1 sequence (P00533 25-1210): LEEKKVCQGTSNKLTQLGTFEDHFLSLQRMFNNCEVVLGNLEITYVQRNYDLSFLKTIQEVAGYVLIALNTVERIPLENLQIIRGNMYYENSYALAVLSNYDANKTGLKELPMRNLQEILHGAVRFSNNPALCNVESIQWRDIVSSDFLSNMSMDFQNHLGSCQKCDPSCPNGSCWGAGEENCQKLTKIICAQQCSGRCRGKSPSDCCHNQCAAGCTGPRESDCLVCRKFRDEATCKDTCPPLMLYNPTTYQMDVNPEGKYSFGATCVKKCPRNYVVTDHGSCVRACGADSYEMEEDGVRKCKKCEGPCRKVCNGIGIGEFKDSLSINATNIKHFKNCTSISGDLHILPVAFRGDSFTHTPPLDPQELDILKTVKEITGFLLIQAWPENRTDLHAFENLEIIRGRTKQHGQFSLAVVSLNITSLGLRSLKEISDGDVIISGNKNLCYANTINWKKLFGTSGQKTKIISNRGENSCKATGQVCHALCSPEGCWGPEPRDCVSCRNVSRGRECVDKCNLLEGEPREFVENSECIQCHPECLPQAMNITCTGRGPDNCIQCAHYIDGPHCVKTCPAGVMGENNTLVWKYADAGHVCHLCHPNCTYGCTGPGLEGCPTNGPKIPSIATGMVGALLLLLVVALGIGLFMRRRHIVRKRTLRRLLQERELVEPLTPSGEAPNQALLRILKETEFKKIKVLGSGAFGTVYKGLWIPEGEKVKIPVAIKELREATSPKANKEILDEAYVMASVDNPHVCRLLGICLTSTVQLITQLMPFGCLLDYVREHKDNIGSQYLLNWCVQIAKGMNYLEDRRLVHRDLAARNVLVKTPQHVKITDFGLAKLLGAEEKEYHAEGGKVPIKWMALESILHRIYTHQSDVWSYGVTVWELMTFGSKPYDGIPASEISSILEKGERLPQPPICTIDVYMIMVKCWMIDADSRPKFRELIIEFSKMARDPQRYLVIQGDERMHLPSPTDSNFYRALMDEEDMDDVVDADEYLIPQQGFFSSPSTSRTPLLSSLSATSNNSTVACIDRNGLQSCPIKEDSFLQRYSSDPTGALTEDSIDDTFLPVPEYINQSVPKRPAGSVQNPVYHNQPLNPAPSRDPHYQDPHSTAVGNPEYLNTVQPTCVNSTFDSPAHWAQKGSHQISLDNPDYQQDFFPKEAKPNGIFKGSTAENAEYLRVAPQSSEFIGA
Procedure: The following example describes general EGFR in-cell Western (ICW) screening protocol.
Two cell plates were prepared for each compound plate.
Serum Starvation: The cells were serum starved prior to compound addition. […] The cell plates were incubated at 37° C./5% CO2 for 2 hours.
Prepared compound plates were stored at RT prior to use and at 4° C. long term.
Compound Dilution Plate Preparation: 250 μl of DMEM supplemented with 1 mg/ml BSA (Sigma A3059-10G) was added to the appropriate wells of a 96 well plate to prepare the compound dilution plates. Using a multichannel pipettor, 1.25 μl of compound from the compound plate was transferred into the compound dilution plate.
Compound Addition: The starve media was removed from the cell plates by aspiration. Using a multichannel pipettor, the compound dilution plates were mixed by pipetting up and down three times. 50 μl of mixed, diluted compound was added to each of two rows/columns on each of two cell plates. The cell plates with compound were incubated at 37° C./5% CO2 for 4 hours.
50 μl of 20 or 0 ng/ml EGF was added to the appropriate wells without the removal of compound. The compound and EGF were mixed by pipetting up and down three times.
The plates were incubated at RT for 20 min without shaking. The Fixation Solution was removed by aspiration and the plates washed four times with 200 μl each of Triton Wash Solution (1×PBS, Sigma P3813-10PK, and 0.1% Triton X-100, T8787-50ML) for 5 min with gentle shaking.
The block was removed by aspiration and 50 μl of diluted primary Ab mix was added. The plates were incubated at 4° C. overnight with gentle shaking. The plates were washed five times with 200 μl of PBST (1×PBS, Sigma P3813-10PK, and 0.1% Tween-20, Sigma P9416-50ML) for 5 min each with shaking. 50 μl of diluted secondary Ab mix was added and the plates incubated at RT for 1 h with shaking. The plates were washed 5× with 200 μl of PBST for 5 min each with shaking. One final wash with 200 μl of PBS (Sigma P3813-10PK) for 5 min with shaking was performed prior to scanning.
In some screening assays, the dilution of the secondary Ab conjugates was 1/800 rather than 1/1200.
Plate Scanning: The plates were scanned on an Odyssey Infrared Imaging System from LI-COR Biosciences. The focus offset was set at 3.5 mm and the scanning intensity set at 3 for the 700 channel and 7 for the 800 channel.
Data Analysis: The % of Maximum and % Inhibition values were calculated as follows. 700 Channel=signal for total EGFR (used to control for variation in cell number). 800 Channel=signal for phosphorylated EGFR. 800−EGF=basal level EGFR phosporylation+non-specific signal (no compound). 800+EGF=800−EGF+EGF dependent EGFR receptor phosphorylation (no compound). 700/800com=700 or 800 channel signals with compound. % Maximum={[(800com/700com)−(800−EGF/700−EGF)]/[(800+EGF/700+EGF)−(800−EGF/700−EGF)]}×100%. % Inhibition=100%−(% Maximum).

MDBK line = assay: MTT Cell Proliferation Assay, MDBK line; assay type: cell-based, bovine; conditions: Bos taurus, MDBK
Source text: as §1, §2, §3, §4, §5, §6, §7, §8, §9, §10, §11, §12

[2] = A-431, 10 point follow-up, first value of pair, read-out: MTT (10 Point follow-up) A431
[3] = 10 point follow-up, second value of pair, read-out: MTT (10 Point follow-up) MDBK
[4] = A-431, 72 h, 72 h, first value of A431/MDBK pair, read-out: MTT-72 h A431
[5] = 72 h, second value of A431/MDBK pair, read-out: MTT-72 h MDBK

| Compound | MTT (10 Point follow-up) ratio ([1]; 10 point follow-up) | IC50 [1, 2] [µM] | ICW Screen (EGFR) | IC50 (MDBK line; [3]) [µM] | MTT-72 h A431/MDBK (ratio) ([1]; 72 h) | IC50 [1, 4] [µM] | ICW Re-Test (EGFR) | IC50 (MDBK line; [5]) [µM] | MTT-72 h % Max ([1]; 72 h) [%] | MTT (10 Point follow-up) % Max ([1]; 10 point follow-up, maximal effect) [%] |
| --- | --- | --- | --- | --- | --- | --- | --- | --- | --- | --- |
| Oc1c(C(Nc2ccccn2)c2ccc(Cl)c(Cl)c2)ccc2cccnc12 (stereo not drawn) [compound 10109] | 2.58 | 0.534 | 12.75 | 1.38 | – | – | – | – | – | – |
| COc1ccc(Br)cc1C(Nc1ccccn1)c1cc(Cl)c2cccnc2c1O (stereo not drawn) [compound 10108] | 1.53 | 1.13 | 15.91 | 1.73 | – | – | – | – | – | – |
| COc1ccccc1NC(c1cccnc1)c1ccc2cccnc2c1O (stereo not drawn) [compound 11102] | – | – | 44.31 | – | 1.04 | 7.39 | 39.06 | 7.66 | – | – |
| Cc1ccc2ccc(C(Nc3ccccn3)c3ccc(C)c(C)c3)c(O)c2n1 (stereo not drawn) [compound 10034] | – | – | 27.1 | – | 0.60 | 12 | – | 7.16 | – | – |
| CCOc1ccccc1C(Nc1ccccn1)c1ccc2ccc(C)nc2c1O (stereo not drawn) [compound 10049] | – | – | 35.57 | – | 0.94 | 12.2 | – | 11.5 | – | – |
| CCOc1cc(C(Nc2ccccn2)c2ccc3cccnc3c2O)ccc1OC (stereo not drawn) [compound 1968] | – | – | 46.48 | – | 0.86 | 7.14 | 20.95 | 6.15 | – | – |
| Cc1cccc(NC(c2ccccn2)c2ccc3ccc(C)nc3c2O)n1 (stereo not drawn) [compound 10948] | – | – | 44.24 | – | 1.34 | 8.87 | 30.99 | 11.9 | – | – |
| Oc1c(C(Nc2ccccn2)c2cccc(Br)c2)cc(Cl)c2cccnc12 (stereo not drawn) [compound 10100] | 1.62 | 1.06 | 18.12 | 1.72 | – | – | – | – | – | – |
| Cc1ccnc(NC(c2ccc(F)cc2)c2ccc3cccnc3c2O)c1 (stereo not drawn) [compound 10522] | 1.14 | 1.65 | 26.6 | 1.89 | – | – | – | – | – | – |
| Cc1ccccc1C(Nc1ccccn1)c1ccc2cccnc2c1O (stereo not drawn) [compound 10019] | 0.71 | 4.49 | 33.75 | 3.21 | 0.98 | 5.35 | – | 5.25 | – | – |
| O=[N+]([O-])c1cccc(C(Nc2cccnc2)c2cc(Cl)c3cccnc3c2O)c1 (stereo not drawn) [compound 10947] | – | – | 42.78 | – | 0.52 | 5.15 | 42.98 | 2.66 | – | – |
| Cc1ccnc(NC(c2ccc3cccnc3c2O)c2sccc2C)c1 (stereo not drawn) [compound 10963] | – | – | 100.4 | – | 1.98 | – | 99.05 | – | 40 | – |
| Oc1c(C(Nc2ccc(OC(F)F)cc2)c2ccccn2)ccc2cccnc12 (stereo not drawn) [compound 11072] | – | – | 44.06 | – | 0.49 | 43.2 | 36.82 | 21.1 | 12 | – |
| Oc1ccc(Br)c(C(Nc2ccccn2)c2ccc3cccnc3c2O)c1 (stereo not drawn) [compound 10064] | 1.29 | 1.56 | 9.336 | 2.01 | – | – | – | – | – | – |
| Oc1c(C(Nc2ccccn2)c2c(F)cccc2Cl)cc(Cl)c2cccnc12 (stereo not drawn) [compound 10105] | 1.40 | 0.605 | 3.88 | 0.85 | 1.12 | 1.29 | – | 1.45 | – | 77 |
| Oc1ccccc1C(Nc1ccccn1)c1ccc2cccnc2c1O (stereo not drawn) [compound 10427] | – | – | 43.39 | – | 0.87 | 5.56 | 43.82 | 4.82 | – | – |
| COc1ccc(C(Nc2cc(C)ccn2)c2ccc3cccnc3c2O)c(OC)c1OC (stereo not drawn) [compound 10031] | – | – | 34.62 | – | 0.65 | 9.39 | – | 6.09 | – | – |
| Cc1ccnc(NC(c2ccc(O)cc2)c2ccc3ccc(C)nc3c2O)c1 (stereo not drawn) [compound 10016] | – | – | 41.45 | – | 1.00 | 25.8 | 29.99 | 25.8 | – | – |
